US10189826B2, “Heterocyclic compounds and methods of use” (Medivation Technologies LLC, priority 2015, dated 2019)
Counter-ions that a name gives are not always drawn. Like-named read-outs stand apart in the source and are kept apart here.

Tests used:
Assay type in all cases: cell-based
HepG2_LSSprom cells = assay: Cytotoxicity assay (LDH release) in HepG2_LSSprom cells; conditions: for Cytotoxicity (5 μM) %: LDH release relative to lysis control
Outline: (§1)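 HepG2_LSSprom cells exposed to compound at 0.625–10 μM in serum-free medium for 6 h or 24 h. Medium LDH measured colorimetrically at 490 nm; release expressed as % of lysis control after vehicle subtraction, negatives set to 0; five independent experiments, triplicate wells, mean±SEM.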

[1] = tested on: SREBP-2 transcriptional activity (SREBP2 cleavage) in HepG2_LSSprom cells; assay: Luciferase reporter driven by a SREBP-2 specific promoter in HepG2_LSSprom cells; conditions: for IC50: read-out: SREBP2 Cleavage (IC50 μM) 24 h; for SREBP2 Cleavage (5 μM) (% Inh): medium without FBS
Outline: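 HepG2_LSSprom cells dosed at 0.625-10 μM in serum-free medium for 6 h (or 24 h), then luciferase luminescence read. Signal normalized to vehicle (100%); IC50 by four-parameter nonlinear fit; five independent experiments, triplicate wells.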

HepG2 cells = assay: Cell viability in HepG2 cells (MTS); conditions: 20 μM, 3 days, DMEM without FBS
Description: For viability measurements, HepG2 cells were seeded at 5,000 cells per well in 96-well plates in DMEM supplemented with 10% FBS. After 1 day in culture, cells were treated with compounds (20 μM) for 3 days in DMEM without FBS. Viability was measured by MTS. Treatment with compounds was carried out in medium without FBS, and viability was measured by MTS.

[2] = tested on: SREBP2 cleavage in HEPG2 cells; assay: SREBP2 cleavage in HEPG2 cells (Western blot normalized to actin); conditions: 20 μM, 1 day, DMEM without FBS
Description: Average SREBP2 cleavage in HEPG2 cells was measured in the presence of compounds disclosed in Table 1. HepG2 cells were seeded at 500,000 cells per well in 6-well plates in DMEM supplemented with 10% FBS. After 2 days, cells were treated with compounds (20 μM) for 1 day in DMEM without FBS. Western blots were normalized with respect to actin.

[3] = Cytotoxicity assay (LDH release) in HepG2_LSSprom cells; conditions: human, HepG2 LSSprom cells, 24 h treatment, LDH release
Outline: as §1

[4] = 24 h, 24 h treatment, HepG2_LSSprom cells

| IC50 [1, 4] | SMILES | IC50 at 24 h [3] | further results |
| --- | --- | --- | --- |
|  | CC1(N)CCCN(C(=O)c2ccc(-c3cc(-c4ccnc(C(C)(C)C)c4)cs3)c(Cl)c2)C1 (single isomer, unassigned) [Compound 95b] |  | IC50 (HepG2_LSSprom cells; 24 h treatment, LDH release): > 10 µM; IC50 ([1]; 24 h treatment, HepG2_LSSprom cells): 0.65 µM |
|  | CCCc1cc(-c2nc(-c3ccc(C(=O)N(C)C)cc3)cs2)ccn1 [Compound 2, N,N-dimethyl-4-[2-(2-propylpyridin-4-yl)-1,3-thiazol-4-yl]benzamide] |  | Average Viability (% Inhibition, n = 3) (HepG2 cells): 30.73 % Inhibition; Average SREBP2 cleavage (% Inhibition, n = 3) [2]: 73.85 % Inhibition |
|  | CCCc1cc(-c2nc(-c3ccc(C(N)=O)cc3)cs2)ccn1 [Compound 3, 4-[2-(2-propylpyridin-4-yl)-1,3-thiazol-4-yl]benzamide] |  | Average Viability (% Inhibition, n = 3) (HepG2 cells): 19.52 % Inhibition; Average SREBP2 cleavage (% Inhibition, n = 3) [2]: 12.18 % Inhibition |
|  | O=C(c1ccc(-c2csc(-c3cccc4[nH]ccc34)n2)c(Cl)c1)N1CCCCC1 [Compound 4, [3-chloro-4-[2-(1H-indol-4-yl)thiazol-4-yl]phenyl]-(1-piperidyl)methanone] |  | Cytotoxicity (5 μM) % (HepG2_LSSprom cells): 1%; SREBP2 Cleavage (5 μM) (% Inh) ([1]; HepG2_LSSprom cells): 48 % Inh |
|  | CC(C)(C)c1cc(-c2nc(-c3ccc(C(=O)N4CCCCC4)cc3Cl)cs2)ccn1 [Compound 5, 2-tert-butyl-4-{4-[2-chloro-4-(piperidine-1-carbonyl)phenyl]-1,3-thiazol-2-yl}pyridine] |  | Cytotoxicity (5 μM) % (HepG2_LSSprom cells): 4%; SREBP2 Cleavage (5 μM) (% Inh) ([1]; HepG2_LSSprom cells): 71 % Inh |
|  | CN(C)C(=O)c1ccc(-c2csc(-c3cccc4[nH]ccc34)n2)c(Cl)c1 [Compound 6, 3-chloro-4-[2-(1H-indol-4-yl)-1,3-thiazol-4-yl]-N,N-dimethylbenzamide] |  | Cytotoxicity (5 μM) % (HepG2_LSSprom cells): 0%; SREBP2 Cleavage (5 μM) (% Inh) ([1]; HepG2_LSSprom cells): 41 % Inh |
|  | CN(C)C(=O)c1ccc(-c2csc(-c3ccnc(N4CCCCC4)c3)n2)c(Cl)c1 [Compound 9, 3-chloro-N,N-dimethyl-4-{2-[2-(piperidin-1-yl)pyridin-4-yl]-1,3-thiazol-4-yl}benzamide] |  | Cytotoxicity (5 μM) % (HepG2_LSSprom cells): 1%; SREBP2 Cleavage (5 μM) (% Inh) ([1]; HepG2_LSSprom cells): 52 % Inh |
| 1.4 µM | CC(C)(C)c1cc(-c2csc(-c3ccc(C(=O)N4CC[C@@H](N)C4)cc3Cl)c2)ccn1 [Compound 96a, (3R)-1-{4-[4-(2-tert-butylpyridin-4-yl)thiophen-2-yl]-3-chlorobenzoyl}pyrrolidin-3-amine] | > 10 µM |  |
| 0.6 µM | CC(C)(C)c1cc(-c2csc(-c3ccc(C(=O)N4CC[C@H](N)C4)cc3Cl)c2)ccn1 [Compound 96b, (3S)-1-{4-[4-(2-tert-butylpyridin-4-yl)thiophen-2-yl]-3-chlorobenzoyl}pyrrolidin-3-amine] | > 10 µM |  |
| 0.17 µM | CC(C)(C)c1cc(-c2csc(-c3ccc(C(=O)N4CCCc5ncccc54)cc3Cl)c2)ccn1 [Compound 97, 1-{4-[4-(2-tert-butylpyridin-4-yl)thiophen-2-yl]-3-chlorobenzoyl}-1,2,3,4-tetrahydro-1,5-naphthyridine] | > 3 µM |  |
|  | CC(C)(C)c1cc(-c2nc(-c3ccc(C(=O)N4CCC(O)CC4)cc3Cl)c[nH]2)ccn1 [Compound 98, 1-{4-[2-(2-tert-butylpyridin-4-yl)-1H-imidazol-4-yl]-3-chlorobenzoyl}piperidin-4-ol] | > 10 µM | IC50 ([1]; 24 h): 0.99 µM |
|  | COC1CCCN(C(=O)c2ccc(-c3cc(-c4ccnc(C(C)(C)C)c4)cs3)c(Cl)c2)C1 (stereo not drawn) [Compound 99, 2-tert-butyl-4-{5-[2-chloro-4-(3-methoxypiperidine-1-carbonyl)phenyl]thiophen-3-yl}pyridine] | > 10 µM | IC50 ([1]; 24 h): 0.051 µM |
| 0.74 µM | CC1(O)CCN(C(=O)c2ccc(-c3cc(-c4ccnc(C(C)(C)C)c4)cs3)c(Cl)c2)CC1 [Compound 100, 1-{4-[4-(2-tert-butylpyridin-4-yl)thiophen-2-yl]-3-chlorobenzoyl}-4-methylpiperidin-4-ol] | > 10 µM |  |
| 0.15 µM | CC(C)(C)c1cc(-c2csc(-c3ccc(C(=O)N4CCC[C@](C)(O)C4)cc3Cl)c2)ccn1 [Compound 101a, [4-[4-(2-tert-butyl-4-pyridyl)-2-thienyl]-3-chloro-phenyl]-[(3S)-3-hydroxy-3-methyl-1-piperidyl] methanone hydrochloride] | > 10 µM |  |
| 0.025 µM | CC(C)(C)c1cc(-c2csc(-c3ccc(C(=O)N4CCC[C@](C)(O)C4)cc3Cl)c2)ccn1 [Compound 101b, (3S)-1-{4-[4-(2-tert-butylpyridin-4-yl)thiophen-2-yl]-3-chlorobenzoyl}-3-methylpiperidin-3-ol] | > 10 µM |  |
| 0.44 µM | CC(C)CCn1nccc1-c1cc(-c2ccc(C(=O)N3CCOCC3)cc2Cl)cs1 [Compound 102, [3-chloro-4-[5-(2-isopentylpyrazol-3-yl)-3-thienyl]phenyl]-morpholino-methanone] | > 10 µM |  |
| 0.69 µM | CC(C)CCn1nccc1-c1cc(-c2ccc(C(=O)N3CCC(F)(F)CC3)cc2Cl)cs1 [Compound 103, [3-chloro-4-[5-(2-isopentylpyrazol-3-yl)-3-thienyl]phenyl]-(4,4-difluoro-1-piperidyl)methanone] | > 10 µM |  |
| 0.13 µM | CC(C)CCn1nccc1-c1csc(-c2ccc(C(=O)N3CCCC(O)C3)cc2Cl)c1 (stereo not drawn) [Compound 104, [3-chloro-4-[4-(2-isopentylpyrazol-3-yl)-2-thienyl]phenyl]-(3-hydroxy-1-piperidyl)methanone] | > 10 µM |  |
